Data: PMC10906223 (JCI Insight, 2024)
Values joined by “and” are separate entries in the source; they are usually repeats but may differ in a detail not shown here. Equal entries are not always repeated.

What was measured:
[1] = Microsomal stability assay, CD-1 mouse liver microsomes; assay type: in vitro ADME; settings: for Remaining in hepatic microsomes (100 at 0 min): mouse microsomes, Figure 5D
Description: A total of 445 μL of the working solution was transferred into prewarmed incubation plates for treated (T60) and control (NCF60) measurements. After preincubation (10 minutes at 37°C with constant shaking), 54 μL was transferred to the blank plate, followed by 6 μL of NADPH and 180 μL quenching solution. In parallel, 5 μL of WCDD301 (100 μM) was added into incubation plates (T60 and NCF60) containing microsomes and mixed thoroughly (3 times). For the NCF60 plate, 50 μL of buffer was added, mixed (thoroughly, 3 times), shaken, and incubated at 37°C for 60 minutes. In the quenching plate T0, quenching solution (180 μL) and NADPH cofactor (6 μL) were added. For T60 plate, 54 μL of the mixture was placed into the quenching plate (for T0 point), followed by adding 44 μL NADPH cofactor with shaking incubation at 37°C for 60 minutes. Quenching solution (180 μL) was added to quenching plates at 5, 15, 30, 45, and 60 minutes, and 60 μL of sample was transferred from T60 plate per time point to the quenching plates. For the NCF60 plates, 60 μL sample from the NCF60 incubation plate was transferred to the quenching plate (containing quenching solution) at the 60-minute time point. After plates were shaken for 10 minutes and centrifuged (1,750g, 20 minutes at 4°C), 80 μL of the supernatant was transferred into 240 μL HPLC water for LC-MS/MS analysis. The following first-order kinetic equation was used to calculate half-life (T1/2): [drawing 3]; when
Then, intrinsic clearance [CLint (microsomal; mic)] and hepatic clearance [CLint (liver)] were predicted using the following equations ([66]): […]

diabetic NOD mice [2] = experiment: Intraperitoneal glucose tolerance test in NOD mice; assay type: in vivo, mouse; design: Blood glucose, IPGTT (Figure 6D): unit not given here; settings: for Blood glucose, IPGTT (Figure 6D): Diabetic
Description: Following 5 hours of fasting, NOD mice were injected with 20% sterile glucose solution (i.p. […] body weight; at the volume of 10 times of the body weight). Blood glucose levels were measured before injection by tail nick. Following injection, blood glucose levels were measured at time points of 15, 30, 45, 60, 90, 120, and 180 minutes by using the glucometer. […] Glucose tolerance test was done at 3 time points (8, 14, and 24 hours) after the final WCDD301 administration. Data were plotted using GraphPad Prism software version 4.

diabetic NOD mice [3] = experiment: Insulin tolerance test in NOD mice; assay type: in vivo, mouse; settings: WCDD301 dosing
From the text: Following a 4-hour fast, nondiabetic placebo-treated (n = 4), diabetic placebo-treated (n = 4), and diabetic WCDD301-treated (n = 4) NOD female mice were intraperitoneally injected with insulin (Humulin-R; 0.75 U/kg, Eli Lilly and Company). […]

diabetic NOD mice [4] = experiment: Plasma insulin in NOD mice after treatment; assay type: in vivo, mouse; settings: WCDD301-treated diabetic NOD mice; Figure 6C
Description: Terminal blood was collected into microfuge tubes containing K2-EDTA (supplemented by 45 mM phenylmethylsulphonyl fluoride and 0.77 μM aprotinin) through cardiac puncture. Plasma was separated by centrifugation (2,000g for 10 minutes at 4°C) and kept at –80°C until analysis. Plasma samples with hemolysis were excluded from the study. […] Values of BUN, creatinine, ALB, ALT, and AST were determined by a Roche Cobas C501 Autoanalyzer as performed by the Washington University Diabetes Research Center Translational Diagnostics Core. Reference intervals of blood chemistry parameters for inbred NOD mice were extracted from the Mouse Phenome Database (https://phenome.jax.org/).

[5] = tested on: α cells of NOD mice islets; experiment: α cell numbers and sizes in islets of NOD mice; assay type: in vivo, mouse; settings: 11-week administration; Supplemental Figure 7
Description: Pancreata of NOD mice (females, n = 3 per group) from nondiabetic, diabetic placebo-treated, and diabetic WCDD301-treated cohorts were excised; fixed in 10% buffered formalin for 5 days; and treated with ethanol 70% for 2 days before paraffin embedding. The paraffin-embedded tissue blocks were longitudinally sectioned in 5 μm slices and fixed on microscope slides. Following deparaffinization (through incubation in graded xylene, graded ethanol, and PBS), permeabilization (using 0.1% Triton X-100 in PBS), and background blocking (using 5% BSA solution containing 0.1% Tween 20), samples were incubated with primary antibodies (mouse anti-glucagon, Abcam, catalog ab10988; above-mentioned rabbit anti-EphA4), secondary antibodies (goat anti-mouse IgG Alexa Fluor 488; Invitrogen, catalog A-11001; goat anti-rabbit IgG Alexa Fluor 633, Invitrogen, catalog A-21070), SPY555-Actin (Cytoskeleton, catalog SC202), and DAPI. Image acquisition and analysis were performed as for dispersed islet cells. […] ROIs were manually drawn around each islet, background signal was removed by thresholding, and intensity of glucagon signal was determined and normalized by the islet surface area. To determine sizes of α cells per islet, ROIs were manually drawn around α cells in each islet. […]

## CC(=O)OCC(N)(COC(C)=O)COC(C)=O [WCDD301, 2-(acetoxymethyl)-2-aminopropane-1,3-diyl diacetate]
[1]; CD-1, mouse, liver microsomes
  half-life at 1 µM: 1.56 h
[1]; CD-1, mouse, liver microsomes, read-out: Intrinsic microsomal clearance
  microsomal CLint at 1 µM: 14.8 µL/min/mg
[1]; 5 min
  Remaining in hepatic microsomes (100 at 0 min): 95.6
[1]; 15 min
  Remaining in hepatic microsomes (100 at 0 min): 86.5
[1]; 30 min
  Remaining in hepatic microsomes (100 at 0 min): 79.8
[1]; 45 min
  Remaining in hepatic microsomes (100 at 0 min): 69.6
[1]; 60 min
  Remaining in hepatic microsomes (100 at 0 min): 64.2
[1]; mouse, predicted from microsomal data
  Hepatic clearance: 3.52 L/h/kg
Diabetic NOD mice [2]; 8h after WCDD301 dosing (first group, c4-c6), 0 min
  Blood glucose, IPGTT (Figure 6D): 135 and 151 and 125
Diabetic NOD mice [2]; 8h after WCDD301 dosing (first group, c4-c6), 15 min
  Blood glucose, IPGTT (Figure 6D): 160 and 159 and 158
Diabetic NOD mice [2]; 8h after WCDD301 dosing (first group, c4-c6), 30 min
  Blood glucose, IPGTT (Figure 6D): 175 and 165 and 162
Diabetic NOD mice [2]; 8h after WCDD301 dosing (first group, c4-c6), 45 min
  Blood glucose, IPGTT (Figure 6D): 165 and 175
Diabetic NOD mice [2]; 8h after WCDD301 dosing (first group, c4-c6), 60 min
  Blood glucose, IPGTT (Figure 6D): 155 and 145 and 135
Diabetic NOD mice [2]; 8h after WCDD301 dosing (first group, c4-c6), 90 min
  Blood glucose, IPGTT (Figure 6D): 150 and 135 and 114
Diabetic NOD mice [2]; 8h after WCDD301 dosing (second group, c7-c9), 0 min
  Blood glucose, IPGTT (Figure 6D): 140 and 151 and 137
Diabetic NOD mice [2]; 8h after WCDD301 dosing (second group, c7-c9), 15 min
  Blood glucose, IPGTT (Figure 6D): 210 and 206 and 205
Diabetic NOD mice [2]; 8h after WCDD301 dosing (second group, c7-c9), 30 min
  Blood glucose, IPGTT (Figure 6D): 340 and 307 and 321
Diabetic NOD mice [2]; 8h after WCDD301 dosing (second group, c7-c9), 45 min
  Blood glucose, IPGTT (Figure 6D): 380 and 356 and 372
Diabetic NOD mice [2]; 8h after WCDD301 dosing (second group, c7-c9), 60 min
  Blood glucose, IPGTT (Figure 6D): 320 and 395 and 372
Diabetic NOD mice [2]; 8h after WCDD301 dosing (second group, c7-c9), 90 min
  Blood glucose, IPGTT (Figure 6D): 295 and 386 and 368
Diabetic NOD mice [2]; 8h after WCDD301 dosing (second group, c7-c9), 120 min
  Blood glucose, IPGTT (Figure 6D): 135 and 159 and 148
Diabetic NOD mice [2]; 14h after WCDD301 dosing, 0 min
  Blood glucose, IPGTT (Figure 6D): 119 and 140 and 138
Diabetic NOD mice [2]; 14h after WCDD301 dosing, 15 min
  Blood glucose, IPGTT (Figure 6D): 520 and 480 and 450
Diabetic NOD mice [2]; 14h after WCDD301 dosing, 30 min
  Blood glucose, IPGTT (Figure 6D): 650 and 550
Diabetic NOD mice [2]; 14h after WCDD301 dosing, 45 min
  Blood glucose, IPGTT (Figure 6D): 650
Diabetic NOD mice [2]; 14h after WCDD301 dosing, 60 min
  Blood glucose, IPGTT (Figure 6D): 650 and 550 and 468
Diabetic NOD mice [2]; 14h after WCDD301 dosing, 90 min
  Blood glucose, IPGTT (Figure 6D): 555 and 450 and 350
Diabetic NOD mice [2]; 14h after WCDD301 dosing, 120 min
  Blood glucose, IPGTT (Figure 6D): 410 and 325 and 286
Diabetic NOD mice [2]; 14h after WCDD301 dosing, 180 min
  Blood glucose, IPGTT (Figure 6D): 158 and 151 and 140
Diabetic NOD mice [2]; 24h after WCDD301 dosing, 0 min
  Blood glucose, IPGTT (Figure 6D): 320 and 290 and 325
Diabetic NOD mice [2]; 24h after WCDD301 dosing, 15 min
  Blood glucose, IPGTT (Figure 6D): 590 and 480 and 552
Diabetic NOD mice [2]; 24h after WCDD301 dosing, 30 min
  Blood glucose, IPGTT (Figure 6D): 650 and 590 and 610
Diabetic NOD mice [2]; 24h after WCDD301 dosing, 45 min
  Blood glucose, IPGTT (Figure 6D): 650
Diabetic NOD mice [2]; 24h after WCDD301 dosing, 60 min
  Blood glucose, IPGTT (Figure 6D): 590 and 600 and 580
Diabetic NOD mice [2]; 24h after WCDD301 dosing, 90 min
  Blood glucose, IPGTT (Figure 6D): 520 and 590 and 570
Diabetic NOD mice [2]; 24h after WCDD301 dosing, 120 min
  Blood glucose, IPGTT (Figure 6D): 490 and 520 and 505
Diabetic NOD mice [2]; 24h after WCDD301 dosing, 180 min
  Blood glucose, IPGTT (Figure 6D): 510 and 550 and 512
Diabetic NOD mice [2]; NOD mice versus placebo-treated diabetic control
  Glucose tolerance: Glucose tolerance was improved
Diabetic NOD mice [3]; 15 min
  Blood glucose in insulin tolerance test, Normalize with basal (0 min) (Figure 6E): 0.89 and 0.91 and 0.86 and 0.88
Diabetic NOD mice [3]; 30 min
  Blood glucose in insulin tolerance test, Normalize with basal (0 min) (Figure 6E): 0.67 and 0.69 and 0.65 and 0.68
Diabetic NOD mice [3]; 45 min
  Blood glucose in insulin tolerance test, Normalize with basal (0 min) (Figure 6E): 0.67 and 0.74 and 0.62 and 0.66
Diabetic NOD mice [3]; 60 min
  Blood glucose in insulin tolerance test, Normalize with basal (0 min) (Figure 6E): 0.71 and 0.73 and 0.77 and 0.72
Diabetic NOD mice [3]; 90 min
  Blood glucose in insulin tolerance test, Normalize with basal (0 min) (Figure 6E): 0.7 and 0.8 and 0.75 and 0.96
Diabetic NOD mice [3]; 120 min
  Blood glucose in insulin tolerance test, Normalize with basal (0 min) (Figure 6E): 0.89 and 0.85 and 0.9 and 0.93
Diabetic NOD mice [4]
  Plasma insulin: Undetectable
[5]
  Numbers or sizes of α cells (histology): did not indicate any alterations in numbers or sizes of α cells
